Data set [1] relates to osteoblastic cells derived from murine calvaria. The data set is described as follows: Etoposide-induced apoptosis of osteoblastic cells derived from murine calvaria (trypan blue uptake). It is filed as cell-based. Conditions: for Lowest Effective Concentration: inhibition of etoposide-induced osteoblast apoptosis, 1 hour pretreatment, trypan blue after 6 hours; for Suppression by 10^−8 M Flutamide: suppression of the anti-apoptotic effect by the androgen receptor antagonist flutamide; for Anti-apoptotic effect on osteoblastic cells after ICI182,780: compound 10^−8 M, 1 h pretreatment with ICI182,780 10^−7 M. On the procedure: Osteoblastic cells derived from murine calvaria were pretreated with the sterols for 1 hour before the addition of the pro-apoptotic agent, etoposide. Apoptosis was determined after 6 hours by trypan blue uptake (Jilka et al, J. Bone and Min. Res. 13:793:802, 1998). * indicates p<0.05 versus etoposide alone, by analysis of variance (ANOVA) (Student-Newman-Keuls method).
Osteoblastic cells derived from murine calvaria were pretreated for 1 hour with the pure receptor antagonist ICI182,780 (10^−7 M) before the addition of the test agents (10^−8 M). Apoptosis was induced and quantified as described in FIG. 3. * indicates p<0.05 versus etoposide alone, by ANOVA (Student-Newman-Keuls method).
In this experiment, osteoblastic cells were derived from murine calvaria and were pretreated with the sterols for 1 hour before the addition of the pro-apoptotic agent, etoposide.
In these experiments, cells were pretreated with the indicated concentrations of the various compounds for 1 hour, in the absence or presence of the androgen receptor antagonist flutamide, before the addition of the proapoptotic agent etoposide. Apoptosis was determined after 6 hours by trypan blue uptake as described in FIG. 3.

The conditions of data set [2]: for at least four years; cited from earlier work.
For data set [3] the following is noted: rats, intravenously; cited from earlier work.
Data set [4] concerns MLO-Y4 osteocytic cells. In words: Etoposide-induced apoptosis of MLO-Y4 osteocytic cells (trypan blue uptake). Conditions: for Inhibition of etoposide-induced apoptosis of osteocytic cell line: 1 h pretreatment before etoposide, trypan blue after 6 h; for Antiapoptotic effect on osteocytes after ICI182,780: 1 h pretreatment with ICI182,780 10^−7 M. Type of data set: cell-based, murine. As to the method: Cells were pretreated with the indicated concentrations of the compounds for 1 hour before the addition of the pro-apoptotic agent etoposide. Apoptosis was determined after 6 hour by trypan blue uptake as described in FIG. 3. * indicates p<0.05 versus etoposide alone, by ANOVA (Student-Newman-Keuls method).
MLO-Y4 cells were pretreated for 1 hour with the pure receptor antagonist ICI182,780 (10^−7 M) before the addition of the test agents (10^−8 M). Apoptosis was induced and quantified as described in FIG. 3. * indicates p<0.05 versus etoposide alone, by ANOVA (Student-Newman-Keuls method).
In this experiment, MLO-Y4 cells were pretreated with the indicated concentrations of the various compounds for 1 h before the addition of the pro-apoptotic agent, etoposide. Apoptosis was determined after 6 h by trypan blue uptake as described in FIG. 3.

Another data set concerns wild type HeLa cells. The data set is described as follows: Etoposide-induced apoptosis of wild type HeLa cells. It is filed as cell-based, human. As to conditions: compound 10^−8 M 1 h, etoposide 5×10^−5 M 6 hour. An excerpt:
CMV promoter alone and CMV promoter-driven cDNA for mERα or mErβ were stably transfected into HeLa cells. […] Cells were trypsinized, pelleted and trypan blue positive cells enumerated. Each bar represents mean of duplicate experiments ±SEM. *P<0.02 versus etoposide alone.
(§1) In this experiment, instead of calvaria cells, human HeLa cells which contain undetectable, if any, estrogen receptor were used. HeLa cells were stably transfected with either a CMV promoter-driven cDNA for the murine estrogen receptor-alpha (mERα) or a CMV promoter-driven cDNA for the murine estrogen receptor-beta (mERβ). […] Cells were trypsinized, pelleted and trypan blue positive cells were enumerated.

For data set [5], the system named is HeLa cells transfected with the estrogen receptor α (mERα). The data set is described as follows: Etoposide-induced apoptosis of HeLa cells stably transfected with mERα. It is filed as cell-based, human. As to conditions: compound 10^−8 M 1 h, etoposide 5×10^−5 M 6 hour.
From the text: (§2) CMV promoter alone and CMV promoter-driven cDNA for mERα or mErβ were stably transfected into HeLa cells. […] Cells were trypsinized, pelleted and trypan blue positive cells enumerated.
as §1

For data set [6], the system named is HeLa cells transfected with estrogen receptor β (mERβ). The data set is described as follows: Etoposide-induced apoptosis of HeLa cells stably transfected with mERβ. It is filed as cell-based, human. As to conditions: compound 10^−8 M 1 h, etoposide 5×10^−5 M 6 hour.
From the text: as §2, §1

In data set [7] the test system is extracellular signal regulated kinases (ERKs) 1 and 2. The data set is described as follows: Western blot of phosphorylated ERK1/2 in MLO-Y4 osteocytic cells. It is filed as cell-based, murine. As to conditions: for Activation of ERKs (phosphorylated fraction of ERK1/2): 10^−8 M, 5, 15 or 30 minutes; for Ability to activate ERKs in the presence of PD98059: compound 10^−8 M, 5 minutes, 50 μM PD98059. On the procedure:
(§3) MLO-Y4 osteocytic cells were incubated for 25 minutes in serum-free medium. […] Cell lysates were prepared and proteins were separated by electrophoresis in polyacrylamide gels and transferred to PVDF membranes. Western blotting was performed using a specific antibody recognizing phosphorylated ERKs 1 and 2, followed by reblotting with an antibody recognizing total ERKs. Blots were developed by enhanced chemiluminescence.
MLO-Y4 cells were incubated for 25 minutes in serum-free medium in the presence or absence of 50 μM PD98059. […] Cell lysates were prepared and proteins were separated by electrophoresis in polyacrylamide gels and transferred to PVDF membranes. Western blotting was performed using a specific antibody recognizing phosphorylated ERKs 1 and 2, followed by reblotting with an antibody recognizing total ERKs. Blots were developed by enhanced chemiluminescence.
as §3, with “In this experiment, MLO-Y4” for “MLO-Y4”, “extracellular signal regulated kinases” for “ERKs”, “extracellular signal regulated kinases.” for “ERKs.”, “chemiluminescence. […] This effect is too rapid to be accounted for by the classical mechanism of estrogen action.” for “chemiluminescence.”
In this experiment, MLO-Y4 osteocytic cells were incubated for 25 minutes in serum-free medium in the presence or absence of 50 μM PD98059. […] Cell lysates were prepared and proteins were separated by electrophoresis in polyacrylamide gels and transferred to PVDF membranes. Western blotting was performed using a specific antibody recognizing phosphorylated extracellular signal regulated kinases 1 and 2, followed by reblotting with an antibody recognizing total extracellular signal regulated kinases. Blots were developed by enhanced chemiluminescence.
On the technique in general: A western blot detects proteins with antibodies after separation by electrophoresis.

Data set [8] deals with MLO-Y4 osteocytic cells. The data set is described as follows: Dexamethasone-induced apoptosis of MLO-Y4 osteocytic cells with PD98059. It is filed as cell-based, murine. Conditions: compound 10^−8 M; PD98059 1 hour; dexamethasone 6 hours. On the procedure: Apoptosis was induced by incubation with the pro-apoptotic agent dexamethasone for 6 hour and quantified as described in FIG. 3. * indicates p<0.05 versus the corresponding control group without dexamethasone, by ANOVA (Student-Newman-Keuls method).
That indeed the anti-apoptotic effect of all the compounds tested herein was mediated via activation of ERKs was established by the results of the experiments shown in FIG. 10. […] Apoptosis was induced by incubation with the pro-apoptotic agent dexamethasone for 6 hours and quantified as described in FIG. 3.

The conditions of data set [9]: human iliac trabecular bone, after one year of treatment; cited from earlier work.
The next data set relates to osteoclasts. As to conditions: increased from approximately 0.5%; cited from earlier work.
For the next data set, the system named is osteoblasts. Conditions: intermittent administration in mice; decreased from 1.7-2.2%; cited from earlier work.

As to `C[C@]12CCC(=O)C=C1CC[C@@H]1[C@@H]2CC[C@]2(C)C(=O)CC[C@@H]12` [4-androstene-3,17-dione], in data set [1], the “Lowest Effective Concentration” value is on record as 10^−8 M and the “Suppression by 10^−8 M Flutamide” value is listed as “yes”.

Turning to `C[C@]12CCC(=O)C[C@@H]1CC[C@@H]1[C@@H]2CC[C@]2(C)[C@@H](O)CC[C@@H]12` [5-α-dihydrotestosterone], in [1], the “Lowest Effective Concentration” value was 10^−9 M and the “Suppression by 10^−8 M Flutamide” value was “yes”.

Take `[F-].[Na+]` [sodium fluoride]: in data set [2], the “Increase of vertebral bone mass” value is on record as 10 % a year.

Consider `C[C@]12CC[C@H](OS(=O)(=O)O)CC1=CC[C@@H]1[C@@H]2CC[C@]2(C)C(=O)CC[C@@H]12` [Dehydroisoandrosterone-3-sulfate (DHES), Dehydroisoandrosterone-3-sulfate], for which, in [1], the “Lowest Effective Concentration” value is 10^−8 M and the “Suppression by 10^−8 M Flutamide” value was “no*”.

In the case of `CC(=O)N[C@@H](CS)C(=O)O` [N-acetylcysteine, acetamido-mercaptopropionic acid], the LD50 (in general, the dose expected to kill half of the subjects tested) in data set [3] is on record as 1140 mg/kg.

`C[C@]1(O)CC[C@H]2[C@@H]3CCC4=CC(=O)CCC4=C3C=C[C@@]21C` [RU1881]: in data set [1], the “Lowest Effective Concentration” value is 10^−8 M and the “Suppression by 10^−8 M Flutamide” value is reported as “yes”.

For the molecule `C[C@]12CC[C@H]3[C@@H](CC=C4C[C@@H](O)CC[C@@]43C)[C@@H]1CC[C@@H]2O` [5-androstene-3β-17_-diol], in data set [1], the “Lowest Effective Concentration” value is reported as 10^−8 M and the “Suppression by 10^−8 M Flutamide” value is given as “yes”.

`C[C@]12CC[C@@H]3c4ccc(O)cc4CC[C@H]3[C@@H]1CC[C@H]2O` [17α-estradiol]: in [1], the “Anti-apoptotic effect on osteoblastic cells after ICI182,780” value was “abrogated”. Besides, in the data set on MLO-Y4 osteocytic cells [4], the “Inhibition of etoposide-induced apoptosis of osteocytic cell line” value is recorded as “dose-dependently inhibited”. Further, in the data set with MLO-Y4 osteocytic cells [4], the “Antiapoptotic effect on osteocytes after ICI182,780” value is “abrogated”. Moreover, the “Effect on etoposide-induced apoptosis” value in the data set with wild type HeLa cells is “none of the three compounds had any effect”; in [5], “potently inhibited”; in [6] it was “potently inhibited”. In addition, the “Activation of ERKs (phosphorylated fraction of ERK1/2)” value in data set [7] is reported as “activated”. Further, the “Ability to activate ERKs in the presence of PD98059” value in data set [7] is “abrogated”. In the data set with MLO-Y4 osteocytic cells [8], the “Anti-apoptotic effect after PD98059 pretreatment” value is recorded as “prevented the anti-apoptotic effect”.

Consider `CC(O)(P(=O)(O)O)P(=O)(O)O` [etidronate], for which the “Reduction of resorption depth” value in [9] is about 30%.

For `C[C@]12CC[C@H]3[C@@H](CCC4=CC(=O)CC[C@@]43C)[C@@H]1CC[C@@H]2O` [Testosterone], in [1], the “Lowest Effective Concentration” value was 10^−9 M and the “Suppression by 10^−8 M Flutamide” value was “yes”.

For the molecule `C[C@]12CCC(=O)C[C@@H]1CC[C@@H]1[C@@H]2CC[C@]2(C)[C@@H](O)CC[C@@H]12` [5-β-dihydrotestosterone], in data set [1], the “Lowest Effective Concentration” value is listed as 10^−10 M and the “Suppression by 10^−8 M Flutamide” value is “yes”.

As to `C[C@]12CC[C@@H]3c4ccc(O)cc4CC[C@H]3[C@@H]1CC[C@@H]2O` [17β-estradiol, reference compound], in [1] (1 hour pretreatment before etoposide), the “Inhibition of etoposide-induced osteoblast apoptosis” value is given as “prevented apoptosis of osteoblastic cells isolated from murine calvaria, in a dose dependent manner”. In addition, in [1], the “Anti-apoptotic effect on osteoblastic cells after ICI182,780” value is given as “abrogated”. In addition, in the data set on MLO-Y4 osteocytic cells [4], the “Inhibition of etoposide-induced apoptosis of osteocytic cell line” value was “dose-dependently inhibited” and the “Antiapoptotic effect on osteocytes after ICI182,780” value was “abrogated”. For the same molecule, the “Effect on etoposide-induced apoptosis” value with wild type HeLa cells is reported as “none of the three compounds had any effect”. Besides, the “Effect on etoposide-induced apoptosis” value in data set [5] is “potently inhibited”. Further, in data set [6], the “Effect on etoposide-induced apoptosis” value is “potently inhibited”. In addition, in data set [7], the “Activation of ERKs (phosphorylated fraction of ERK1/2)” value is “activated” and the “Ability to activate ERKs in the presence of PD98059” value was “abrogated”. Moreover, in the data set with MLO-Y4 osteocytic cells [8], the “Anti-apoptotic effect after PD98059 pretreatment” value was “prevented the anti-apoptotic effect”. Moreover, the Apoptosis of osteoclasts in the data set with osteoclasts is listed as at most 2.7%.

B1: PTH: parathyroid hormone, an agent known for its role in calcium homeostasis (protein, UniProt P01270 32-115, looked up)
Parathyroid hormone: SVSEIQLMHNLGKHLNSMERVEWLRKKLQDVHNFVALGAPLAPRDAGSQRPRKKEDNVLVESHEKSLGEADKADVNVLTKAKSQ
modifications: Parathyroid hormone
notes: parathyroid hormone, an agent known for its role in calcium homeostasis
Regarding B1, the “Prevalence of osteoblast apoptosis” value in the data set with osteoblasts is on record as 0.1-0.4%.
